{
  "source": "patent US10525055B2",
  "about": "“Opioid receptor antagonist prodrugs” (Nirsum Laboratories, Inc., priority 2017, dated 2020)",
  "key": {"KOR": {"biological_target": "T1, KOR (Homo sapiens, UniProt P41145)", "T1 construct": "expressed in transfected cells; membranes prepared from them", "T1 sequence (P41145 whole entry)": "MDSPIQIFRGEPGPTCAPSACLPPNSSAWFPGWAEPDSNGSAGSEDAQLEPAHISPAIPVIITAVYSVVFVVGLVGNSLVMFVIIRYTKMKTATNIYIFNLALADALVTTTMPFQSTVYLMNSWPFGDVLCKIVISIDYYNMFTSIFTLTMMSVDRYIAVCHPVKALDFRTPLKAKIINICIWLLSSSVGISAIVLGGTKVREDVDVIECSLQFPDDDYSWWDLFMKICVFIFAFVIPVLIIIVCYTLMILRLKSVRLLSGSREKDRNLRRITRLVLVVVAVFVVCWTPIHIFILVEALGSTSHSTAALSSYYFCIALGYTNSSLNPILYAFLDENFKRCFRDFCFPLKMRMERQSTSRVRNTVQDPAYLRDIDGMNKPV", "test": "Opioid receptor binding assay, KOR ([3H]Diprenorphine)"}, "[1]": {"test": "Solubility determination in oil (cottonseed oil, sesame oil)", "settings": "Sesame oil; heating temp. 40 °C, obs. temp. 40 °C", "experimental": "A known amount of test substance (˜40 mg) was weighed into the vial, 100 μL of oil was added and heated to 60° C. and then system was slurried to reach equilibrium. […] Extra oil was added into the vial once compound precipitated out and then the system was re-equilibrated at 1000 rpm at room temperature (25° C.). Final concentration was determined by HPLC method as described below in Table 6a and 6b."}, "[2]": {"test": "Plasma stability assay, rat plasma", "format": "in vitro ADME", "settings": "37° C., 10 μM"}, "[3]": {"test": "Polymorph screening of solid state drug substances", "settings": "for XRPD results (Dried): stirred 50 °C 72 hours, solids dried; for Visual observation 50° C. / Visual observation RT: target conc. 100 mg/ml"}, "[4]": {"test": "Equilibrium solubility in water", "settings": "heating temp. 40 °C, obs. temp. 40 °C"}, "MOR": {"biological_target": "T2, MOR (Homo sapiens, UniProt P35372)", "T2 construct": "expressed in transfected cells; membranes prepared from them", "T2 sequence (P35372 whole entry)": "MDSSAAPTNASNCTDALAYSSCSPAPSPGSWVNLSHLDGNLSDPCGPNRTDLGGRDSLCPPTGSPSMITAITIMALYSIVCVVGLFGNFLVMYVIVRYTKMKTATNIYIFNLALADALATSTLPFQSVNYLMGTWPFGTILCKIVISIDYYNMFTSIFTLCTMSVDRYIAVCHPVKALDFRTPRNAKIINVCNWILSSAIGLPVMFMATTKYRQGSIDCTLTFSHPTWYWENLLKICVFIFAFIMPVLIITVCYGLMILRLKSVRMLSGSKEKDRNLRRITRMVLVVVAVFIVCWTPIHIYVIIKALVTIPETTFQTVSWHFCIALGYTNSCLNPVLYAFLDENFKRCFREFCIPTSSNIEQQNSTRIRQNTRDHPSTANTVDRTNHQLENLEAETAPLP", "test": "Opioid receptor binding assay, MOR ([3H]DAMGO)"}, "[5]": {"settings": "cited from earlier work"}},
  "data": [
    {"smiles": "C=C1CC[C@@]2(O)C3Cc4ccc(OC(=O)CCCCCCCCCCCCCCCCCCCCC)c5c4[C@@]2(CCN3CC2CC2)[C@H]1O5", "note": "[Compound 14, (4aS,7aS,12bS)-3-(cyclopropylmethyl)-4a-hydroxy-7-methylene-2,3,4,4a,5,6,7,7a-octahydro-1H-4,12-methanobenzofuro[3,2-e]isoquinolin-9-yl docosanoate]", "values": [
      {"measurement": "IC50", "setting": "KOR", "result": 1770, "unit": "nM"},
      {"measurement": "%Inh@MaxDose", "setting": "KOR; KOR, MaxDose 10000 nM", "result": 68.1, "unit": "%"},
      {"measurement": "Approximate Solubility (mg/mL) in Excipient: Sesame oil", "setting": "[1]", "result": "<51", "unit": "mg/mL"},
      {"measurement": "% remaining at time point in minutes, 0 min", "setting": "[2]; 0 min", "result": 100, "unit": "%"},
      {"measurement": "% remaining at time point in minutes, 15 min", "setting": "[2]; 15 min", "result": 94, "unit": "%"},
      {"measurement": "% remaining at time point in minutes, 120 min", "setting": "[2]; 120 min", "result": 112, "unit": "%"},
      {"measurement": "% remaining at time point in minutes, 480 min", "setting": "[2]; 480 min", "result": 107, "unit": "%"},
      {"measurement": "% remaining at time point in minutes, 1440 min", "setting": "[2]; 1440 min", "result": 120, "unit": "%"},
      {"measurement": "XRPD results (Dried)", "setting": "[3]; Acetone", "result": "Pattern A"},
      {"measurement": "Visual observation 50° C.", "setting": "[3]; Acetone", "result": "Clear"},
      {"measurement": "Visual observation RT", "setting": "[3]; Acetone", "result": "Slimy"},
      {"measurement": "XRPD results (Dried)", "setting": "[3]; EtOAc", "result": "Pattern A"},
      {"measurement": "Visual observation 50° C.", "setting": "[3]; EtOAc", "result": "Clear"},
      {"measurement": "Visual observation RT", "setting": "[3]; EtOAc", "result": "Slurry"},
      {"measurement": "XRPD results (Dried)", "setting": "[3]; Heptane", "result": "Pattern B"},
      {"measurement": "Visual observation 50° C.", "setting": "[3]; Heptane", "result": "Slurry"},
      {"measurement": "Visual observation RT", "setting": "[3]; Heptane", "result": "Slurry"},
      {"measurement": "XRPD results (Dried)", "setting": "[3]; Isopropanol", "result": "Pattern A"},
      {"measurement": "Visual observation 50° C.", "setting": "[3]; Isopropanol", "result": "Clear"},
      {"measurement": "Visual observation RT", "setting": "[3]; Isopropanol", "result": "Clear"},
      {"measurement": "XRPD results (Dried)", "setting": "[3]; MTBE", "result": "Pattern A"},
      {"measurement": "Visual observation 50° C.", "setting": "[3]; MTBE", "result": "Clear"},
      {"measurement": "Visual observation RT", "setting": "[3]; MTBE", "result": "Clear"},
      {"measurement": "Equilibrium solubility (mg/mL) Water", "setting": "[4]", "result": 0.0056, "unit": "mg/mL"},
      {"measurement": "IC50", "setting": "MOR", "result": 12.5, "unit": "nM"},
      {"measurement": "%Inh@MaxDose", "setting": "MOR; MOR, MaxDose 10000 nM", "result": 92.7, "unit": "%"}
    ]},
    {"smiles": "O=C1CC[C@@]2(O)[C@H]3Cc4ccc(O)c5c4[C@@]2(CCN3CC2CC2)[C@H]1O5", "note": "[naltrexone, 17-(cyclopropylmethyl)-4,5α-epoxy-3,14-dihydroxymorphinan-6-one, reference compound]", "values": [
      {"measurement": "time of peak plasma levels after oral dosing", "setting": "[5]", "result": "one"}
    ]},
    {"smiles": "Oc1ccc2c3c1O[C@H]1[C@H](O)CC[C@@]4(O)[C@@H](C2)N(CC2CC2)CC[C@]314", "note": "[6-β-naltrexol]", "values": [
      {"measurement": "time of peak plasma levels after oral dosing", "setting": "[5]", "result": "one"},
      {"measurement": "mean elimination half-life", "setting": "[5]; oral", "result": "thirteen"}
    ]}
  ]
}
